Measurements taken from patent US20070276013A1, “Active Substance Combinations with Insecticidal Properties” (priority 2004, published 2007).
Values joined by “and” are separate entries in the source; they are usually repeats but may differ in a detail not shown here. Equal values may be shown once.

Experiments:
Type in all cases: in vivo
[1] = system: Phaedon cochleariae larvae; assay: Phaedon cochleariae larvae test, treated cabbage leaves; settings: 144 h, after 6 d
Source text: (§1) The action to be expected for a given combination of two active substance can be calculated as follows according to S. R. Colby, Weeds 15 (1967), 20-22:
(§2) If • X stands for the mortality rate expressed in % of the untreated control upon the use of active substance A at an application amount of m g/ha or in a concentration of m ppm, • Y stands for the mortality rate expressed in % of the untreated control upon the use of active substance B at an application amount of n g/ha or in a concentration of n ppm, and • E stands for the mortality rate expressed in % of the untreated control upon the use of active substances A and B at an application amount of m and n g/ha or in a concentration of m and n ppm, then [formula]
(§3) If the actual insecticidal mortality rate is greater than calculated, then the combination is […] in its mortality; that is to say, a synergistic effect is present. In this case the mortality rate that is actually observed must be greater than the value for the expected mortality rate (E) calculated from the formula presented above.
(§4) To produce a suitable active substance preparation, one mixes 1 part by weight of active substance with the listed amount of solvent and emulsifier and dilutes the concentrate with water containing an emulsifier at the desired concentration.
Cabbage leaves (Brassica oleracea) are treated by immersion in the active substance preparation of the desired concentration and filled with mustard beetle larvae (Phaedon cochleariae) for as long as the leaves are still damp.
After […] the mortality in % is determined. In the process, 100% means that all beetle larvae were killed; 0% means that no beetle larvae were killed. One determines the determined mortality rate according to the Colby formula (see page 1).

[2] = system: Aphis gossypii; assay: Aphis gossypii test, immersion of infested cotton leaves; settings: 24 h, after 1 d
Source text: as §1, §2
as §3, with “above. […]” for “above.”
After […] the mortality in % is determined. […] One calculates the determined mortality rate according to the Colby formula (see page 1).

[3] = system: Heliothis armigera; assay: Heliothis armigera test, treated cotton leaves with larvae; settings: Helicoverpa armigera, 144 h, after 6 d
Source text: as §1, §2, §3, §4
Cotton leaves (Gossypium hirsutum) are treated by immersion in the active substance preparation of the desired concentration and filled with cotton bollworm larvae (Heliothis armigera) for as long as the leaves are still damp.
(§5) After […] the mortality in % is determined. In the process, 100% means that all larvae were killed; 0% means that no larvae were killed. One determines the determined mortality rate according to the Colby formula (see page 1).

[4] = system: Myzus persicae; assay: Myzus persicae test, immersion of infested cabbage leaves
Source text: as §1, §2, §3, §4
Cabbage leaves (Brassica oleracea) that are severely afflicted by the green peach aphid (Myzus persicae) are treated by immersion in the active substance preparation of the desired concentration.
After […] the mortality in % is determined. In the process, 100% means that all green peach aphids were killed; 0% means that no green peach aphids were killed. One calculates the determined mortality rate according to the Colby formula (see page 1).

[5] = system: Plutella xylostella (sensitive strain); assay: Plutella xylostella test (sensitive strain), treated cabbage leaves; settings: 144 h, after 6 d, normal sensitivity
Source text: as §1, §2, §3, §4
(§6) Cabbage leaves (Brassica oleracea) are treated by immersion in the active substance preparation of the desired concentration and filled with cabbage moth larvae (Plutella xylostella) for as long as the leaves are still damp.
as §5

[6] = system: Plutella xylostella (resistant strain); assay: Plutella xylostella test (resistant strain), treated cabbage leaves; settings: 144 h, after 6 d
Source text: as §1, §2, §3, §4, §6, §5

[7] = system: Spodoptera exigua; assay: Spodoptera exigua test, treated cabbage leaves; settings: 144 h, after 6 d
Source text: as §1, §2
as §3, with “above. […]” for “above.”
(§7) After […] the mortality in % is determined. […] One determines the determined mortality rate according to the Colby formula (see page 1).

[8] = system: Spodoptera frugiperda; assay: Spodoptera frugiperda test, treated cabbage leaves; settings: 72 h, after 3 d
Source text: as §1, §2
as §3, with “above. […]” for “above.”
as §7

## CC1(C)C(C=C(Cl)Cl)C1C(=O)OC(C#N)c1cccc(Oc2ccccc2)c1 (stereo not drawn) [Alpha-cypermethrin, Alpha-Cypermethrin]
[1]
  mortality at 0.16 ppm: 5%

## CC1(C)C(C=C(Cl)Cl)C1C(=O)OC(C#N)c1ccc(F)c(Oc2ccccc2)c1 (stereo not drawn) [Beta-cyfluthrin, Betacyfluthrin]
[2]; 0.12 ppm
  mortality at 0.12 ppm: 5%
[3]
  mortality at 0.12 ppm: 0%
[4]; Myzus persicae, 144 h, read-out: Mortality in % after 6 d, 0.12 ppm, after 6 d
  mortality at 0.12 ppm: 0%
[1]; 0.12 ppm
  mortality at 0.12 ppm: 15%
[5]
  mortality at 0.024 ppm: 10%
[6]
  mortality at 0.6 ppm: 35%
[7]; 0.6 ppm
  mortality at 0.6 ppm: 25%
[8]; 0.12 ppm
  mortality at 0.12 ppm: 5%

## Cc1c(COC(=O)C2C(/C=C(\Cl)C(F)(F)F)C2(C)C)cccc1-c1ccccc1 (stereo not drawn) [Bifenthrin]
[4]; Myzus persicae, 144 h, read-out: Mortality in % after 6 d, 0.16 ppm, after 6 d
  mortality at 0.16 ppm: 0%
[1]; 0.8 ppm
  mortality at 0.8 ppm: 35%

## CC1(C)[C@H](C(=O)O[C@H](C#N)c2cccc(Oc3ccccc3)c2)[C@@H]1C=C(Br)Br [Deltamethrin]
[1]
  mortality at 0.16 ppm: 30%

## CC1(C)C(/C=C(\Cl)C(F)(F)F)C1C(=O)OC(C#N)c1cccc(Oc2ccccc2)c1 (stereo not drawn) [Lambda-cyhalothrin]
[3]
  mortality at 0.12 ppm: 55%
[5]
  mortality at 0.024 ppm: 40%
[6]
  mortality at 0.6 ppm: 40%

## N#C/N=C1\SCCN1Cc1ccc(Cl)nc1 [Thiacloprid, thiacloprid]
[2]; 0.6 ppm
  mortality at 0.6 ppm: 35%
[3]
  mortality at 0.12 ppm: 0%
[3]; 0.6 ppm
  mortality at 0.6 ppm: 0%
[4]; 0.8 ppm, after 6 d
  Mortality in % after 6 d: 0% and 10%
[4]; Myzus persicae, 144 h, read-out: Mortality in % after 6 d, 0.6 ppm, after 6 d
  mortality at 0.6 ppm: 35%
[1]; 3 ppm
  mortality at 3 ppm: 15%
[1]; 20 ppm
  mortality at 20 ppm: 40%
[5]; 0.6 ppm
  mortality at 0.6 ppm: 0%
[6]; 3 ppm
  mortality at 3 ppm: 0%
[6]; 15 ppm
  mortality at 15 ppm: 10%
[7]; 15 ppm
  mortality at 15 ppm: 0%
[8]; 0.6 ppm
  mortality at 0.6 ppm: 0%
